Experimental data taken from ChEMBL document CHEMBL2016560, “Mannitol Bis-phosphate Based Inhibitors of Fructose 1,6-Bisphosphate Aldolases” (ACS Med Chem Lett, 2011).
Calls of active or inactive are those of the source. The calls are words filed in the database; no cut-off is given here.

Experiments:
[1] = molecular target: T1, Fructose-bisphosphate aldolase, glycosomal (Trypanosoma brucei brucei, UniProt P07752); experiment: Inhibition of His-tagged recombinant Trypanosoma brucei fructose bis-phosphate aldolase expressed in Escherichia coli using FBP as substrate after 5 to 15 mins
T1 sequence (P07752 whole entry): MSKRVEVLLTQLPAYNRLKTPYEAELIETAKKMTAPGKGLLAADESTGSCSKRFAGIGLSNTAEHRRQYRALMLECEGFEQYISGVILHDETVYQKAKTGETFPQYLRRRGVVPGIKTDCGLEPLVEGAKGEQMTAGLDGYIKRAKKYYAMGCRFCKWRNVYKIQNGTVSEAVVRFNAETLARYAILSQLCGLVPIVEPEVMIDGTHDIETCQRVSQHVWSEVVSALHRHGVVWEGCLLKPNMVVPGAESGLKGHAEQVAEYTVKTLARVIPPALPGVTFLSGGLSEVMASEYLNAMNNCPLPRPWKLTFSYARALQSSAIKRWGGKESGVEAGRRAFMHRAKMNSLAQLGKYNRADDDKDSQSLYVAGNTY

[2] = molecular target: T2, Fructose-bisphosphate aldolase A (Oryctolagus cuniculus, UniProt P00883); experiment: Inhibition of rabbit muscle FBA assessed as inhibition of FBP cleavage by spectrophotometry
T2 sequence (P00883 whole entry): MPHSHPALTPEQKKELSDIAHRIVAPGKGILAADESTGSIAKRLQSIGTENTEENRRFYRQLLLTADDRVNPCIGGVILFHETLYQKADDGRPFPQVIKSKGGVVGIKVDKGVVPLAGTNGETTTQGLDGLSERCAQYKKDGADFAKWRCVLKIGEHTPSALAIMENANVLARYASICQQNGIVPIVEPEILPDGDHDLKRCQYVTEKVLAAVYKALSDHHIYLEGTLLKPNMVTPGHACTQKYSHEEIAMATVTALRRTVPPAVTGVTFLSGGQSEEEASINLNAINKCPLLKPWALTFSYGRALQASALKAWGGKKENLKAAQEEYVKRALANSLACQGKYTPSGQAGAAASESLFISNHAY

[3] = molecular target: T3, Fructose-bisphosphate aldolase, glycosomal (Trypanosoma brucei brucei) (UniProt P07752); experiment: Competitive inhibition of His-tagged recombinant Trypanosoma brucei fructose bis-phosphate aldolase expressed in Escherichia coli by double-reciprocal plot analysis
T3 sequence (whole entry): T1 sequence (P07752 whole entry)

For CCCCCO[C@H](COP(=O)(O)O)[C@@H](O)[C@H](O)[C@H](O)COP(=O)(O)O, the IC50 [1] was 117 µM, the IC50 [2] was 157 µM and the “inhibition mode (competitive)” value [3] was “Active”.

CO[C@H](COP(=O)(O)O)[C@@H](O)[C@H](O)[C@H](O)COP(=O)(O)O was tested, and the IC50 [1] was 2 µM, the IC50 [2] was 7.5 µM and the “inhibition mode (competitive)” value [3] was “Active”.

For O=C(COP(=O)(O)O)[C@@H](O)[C@H](O)[C@H](O)COP(=O)(O)O (mixture of isomers), the IC50 [1] was 10 µM and the IC50 [2] was 13 µM.

In the case of CCO[C@H](COP(=O)(O)O)[C@@H](O)[C@H](O)[C@H](O)COP(=O)(O)O, the IC50 [1] is reported as 51 µM, the IC50 [2] is reported as 64 µM and the “inhibition mode (competitive)” value [3] is reported as “Active”.

For CCCCC[C@@](O)(COP(=O)(O)O)[C@@H](O)[C@H](O)[C@H](O)COP(=O)(O)O, the IC50 [1] was 15 µM, the IC50 [2] was 17 µM and the “inhibition mode (competitive)” value [3] was “Active”.

O=P(O)(O)OC[C@@H](O)[C@@H](O)[C@H](O)[C@@H](COP(=O)(O)O)OCCCc1ccccc1 was tested, and the IC50 [1] was 31 µM, the IC50 [2] was 21 µM and the “inhibition mode (competitive)” value [3] was “Active”.

CC[C@@](O)(COP(=O)(O)O)[C@@H](O)[C@H](O)[C@H](O)COP(=O)(O)O was tested, and the IC50 [1] was 130 µM, the IC50 [2] was 244 µM and the “inhibition mode (competitive)” value [3] was “Active”.

For O=P(O)(O)OC[C@@H](O)[C@@H](O)[C@H](O)[C@H](O)COP(=O)(O)O, the IC50 [1] was 9.4 µM and the IC50 [2] was 8 µM.

For O=P(O)(O)OC[C@@H](O)[C@@H](O)[C@H](O)[C@@](O)(CCCc1ccccc1)COP(=O)(O)O, the IC50 [1] was 56 µM, the IC50 [2] was 137 µM and the “inhibition mode (competitive)” value [3] was “Active”.
